pIC50: −log10 of the molar value. Counter-ions that a name gives are not always drawn. Where only a bound is given, the exact number is not on record here.

This test deals with PRMT5 (Homo sapiens (Human), UniProt O14744). Briefly: Inhibitory activity against PRMT5 enzyme by radioisotopic method. The class given is biochemical. The conditions noted are these: PRMT5 5 nM, [3H]-SAM 0.3 μM, polypeptide substrate GL-27 100 nM, room temperature. As for the experimental part: Test Example 1. Test on the inhibitory activity of the compounds of the invention against PRMT5 enzyme by radioisotopic method
Sequence of PRMT5 (O14744 whole entry): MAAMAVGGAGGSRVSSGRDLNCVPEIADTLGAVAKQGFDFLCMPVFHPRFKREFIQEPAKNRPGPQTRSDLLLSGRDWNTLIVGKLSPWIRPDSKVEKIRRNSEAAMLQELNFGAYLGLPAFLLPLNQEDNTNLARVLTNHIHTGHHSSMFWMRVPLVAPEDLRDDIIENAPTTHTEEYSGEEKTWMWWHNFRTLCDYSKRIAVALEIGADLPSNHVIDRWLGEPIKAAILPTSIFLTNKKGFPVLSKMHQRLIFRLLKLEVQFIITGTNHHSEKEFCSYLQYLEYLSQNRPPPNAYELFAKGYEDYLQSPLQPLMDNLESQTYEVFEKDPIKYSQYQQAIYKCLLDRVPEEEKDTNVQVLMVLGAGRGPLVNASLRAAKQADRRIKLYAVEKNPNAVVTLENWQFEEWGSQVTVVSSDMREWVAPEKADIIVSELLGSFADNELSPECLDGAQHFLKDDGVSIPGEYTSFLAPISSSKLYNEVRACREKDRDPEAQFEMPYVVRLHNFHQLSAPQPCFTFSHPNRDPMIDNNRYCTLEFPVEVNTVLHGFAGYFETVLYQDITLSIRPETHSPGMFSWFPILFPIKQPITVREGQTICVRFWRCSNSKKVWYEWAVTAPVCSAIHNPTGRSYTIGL
Sequence of PRMT5 (Q9BQA1 whole entry partner): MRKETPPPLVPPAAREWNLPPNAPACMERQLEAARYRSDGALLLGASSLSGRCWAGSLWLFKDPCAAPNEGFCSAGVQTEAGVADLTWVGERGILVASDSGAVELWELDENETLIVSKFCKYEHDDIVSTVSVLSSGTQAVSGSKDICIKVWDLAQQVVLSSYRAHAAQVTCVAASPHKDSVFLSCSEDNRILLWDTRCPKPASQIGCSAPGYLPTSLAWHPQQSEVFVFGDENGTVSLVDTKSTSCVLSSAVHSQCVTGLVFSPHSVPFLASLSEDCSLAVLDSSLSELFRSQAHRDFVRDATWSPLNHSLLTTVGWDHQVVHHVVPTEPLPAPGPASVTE
Test method: A 1× enzyme reaction buffer (10 mM Tris 8.0 (Sigma, Cat. No. T2694-1L), 0.01% Tween-20 (Sigma, Cat. No. P2287-100 ML), 1 mM DTT (Sigma, Cat. No. D0632-10G)) was prepared. PRMT5 (Active Motif, Cat. No. 31921) and [3H]—SAM (PerkinElmer, Cat. No. NET155V001MC) were added to the 1×enzyme reaction buffer, to prepare a 25/15× mixed solution (PRMT5 final concentration: 5 nM, [3H]—SAM final concentration: 0.3 μM). 15 μL of this solution was transferred into a 384-well microplate (Corning 384-well Polypropylene Storage Microplates, Cat. No. 3657) with various concentrations of the compounds (DMSO final concentration 1%), and incubated at room temperature for 60 minutes. A polypeptide substrate, GL-27 (Ac-[…]-K (Biotin) (GL Biochem, Cat. No. 342095)), was added into the 1×enzyme reaction buffer to prepare a 25/10× substrate solution. Then 10 μL of the polypeptide substrate solution (final concentration of the polypeptide substrate: 100 nM) was added, a reaction was stirred at room temperature for 120 minutes, and then 5 μL 6× ice cold SAM (Sigma, Cat. No. A7007-100 MG) solution was added to stop the reaction (SAM final concentration: 0.125 mM). 25 µL of the reaction mixture was transferred into a FlashPlate (Streptavidin FlashPlate HTS PLUS, High Capacity, 384-well, Perkin Elmer, Cat. No. SMP410A001PK), and incubated at room temperature for 1 h. After washed three times with distilled water containing 0.1% Tween-20, the microplate was read on a MicroBeta reader for CPM data (Counts Per Minute). […] Then the inhibition rate Inh % (Y) corresponding to each concentration (X) was input in EXCEL, and the IC50 value (the half maximal inhibitory concentration) of each compound was calculated with the XLfit plug-in according to the built-in four-parameter fitting equation Y=Bottom+(Top-Bottom)/(1+(IC50/X)[…]).
As to `CC(=O)N1CCC(Nc2cc(C(=O)N3CC[C@H](N4CCc5ccccc5C4)[C@@H](O)C3)nc(N(C)C)n2)CC1` (relative stereo) [Example 118, trans-1-(4-((6-(4-(3,4-dihydroisoquinolin-2(1H)-yl)-3-hydroxypiperidine-1-carbonyl)-2-(dimethylamino)pyrimidin-4-yl)amino)piperidin-1-yl)ethan-1-one], the negative-log IC50 (pIC50) was over 7.00.

Take `O=C(c1cc(NC2CCOCC2)ncn1)N1CC[C@H](N2CCc3ccccc3C2)[C@@H](O)C1` [Example 109]: the pIC50 is over 7.00.

Take `O[C@H]1CN(c2cc(Nc3ccccc3C(F)(F)F)ncn2)CC[C@@H]1N1CCc2ccccc2C1` (relative stereo) [Example 58, trans-4-(3,4-dihydroisoquinolin-2(1H)-yl)-1-(6-((2-trifluoromethylphenyl)amino)pyrimidin-4-yl)piperidin-3-ol]: the pIC50 is over 7.00.

For the compound `O[C@H]1CN(c2cc(Nc3ccccc3C3CC3)ncn2)CC[C@@H]1N1CCc2ccccc2C1` (relative stereo) [Example 51, trans-4-(3,4-dihydroisoquinolin-2(1H)-yl)-1-(6-((2-cyclopropylphenyl)amino)pyrimidin-4-yl)piperidin-3-ol], the pIC50 was over 7.00.

On to `CCC(CC)Oc1nc(NC2CCN(C(C)=O)CC2)cc(C(=O)N2CC[C@@H](N3CCc4ccccc4C3)[C@H](O)C2)n1` [Example 141, 1-(4-((6-((3R,4R)-4-(3,4-dihydro-4,4-dideuterium-isoquinolin-2(1H)-yl)-3-hydroxypiperidine-1-carbonyl)-2-(pentane-3-oxy)pyrimidin-4-yl)amino)piperidin-1-yl)-ethan-1-one], for which the negative logarithm of the IC50 (pIC50) is over 7.00.

Regarding `O[C@H]1CN(c2cc(Nc3ccccc3OC(F)(F)F)ncn2)CC[C@@H]1N1CCc2ccccc2C1` (relative stereo) [Example 84, trans-4-(3,4-dihydroisoquinolin-2(1H)-yl)-1-(6-((2-(trifluoromethoxy)-phenyl)amino)pyrimidin-4-yl)piperidin-3-ol], the negative-log IC50 (pIC50) is over 7.00.

`CC(C)(C)OC(=O)N1CCC(Nc2cc(C(=O)N3CC[C@H](N4CCc5ccccc5C4)[C@@H](O)C3)ncn2)CC1` (relative stereo) [Example 110, t-butyl trans-4-((6-(4-(3,4-dihydroisoquinolin-2(1H)-yl)-3-hydroxypiperidine-1-carbonyl)pyrimidin-4-yl)amino)piperidine-1-carboxylate]: the pIC50 is over 7.00.

The compound `O[C@H]1CN(c2cc(Nc3ccc(F)c(F)c3)ncn2)CC[C@@H]1N1CCc2ccccc2C1` (relative stereo) [Example 78, trans-1-(6-((3,4-difluorophenyl)amino)pyrimidin-4-yl)-4-(3,4-dihydroisoquinolin-2(1H)-yl)piperidin-3-ol] gave a pIC50 of over 7.00.

Regarding `O[C@H]1CN(c2cc(Nc3ccc(Cl)cc3)ncn2)CC[C@@H]1N1CCc2ccccc2C1` (relative stereo) [Example 62, trans-4-(3,4-dihydroisoquinolin-2(1H)-yl)-1-(6-((4-chlorophenyl)amino)pyrimidin-4-yl)piperidin-3-ol], the negative-log IC50 (pIC50) was over 7.00.

As to `Cc1ccc(Nc2cc(N3CC[C@H](N4CCc5ccccc5C4)[C@@H](O)C3)ncn2)cc1` [Example 41, trans-1-(6-((4-methylphenyl)amino)pyrimidin-4-yl)-4-(3,4-dihydroisoquinolin-2(l H)-yl)piperidin-3-ol], the pIC50 is over 7.00.

In turn, `O=C(c1cc(Nc2ccccc2)ncn1)N1CC[C@H](N2CCc3ccccc3C2)[C@@H](O)C1` [Example 101] showed a negative logarithm of the IC50 (pIC50) of over 7.00.

The compound `O[C@H]1CN(c2cc(Nc3ccccc3F)ncn2)CC[C@@H]1N1CCc2ccccc2C1` (relative stereo) [Example 53, trans-4-(3,4-dihydroisoquinolin-2(1H)-yl)-1-(6-((2-fluorophenyl)amino)pyrimidin-4-yl)piperidin-3-ol] gave a pIC50 of over 7.00.

Consider `CC(=O)N1CCC(Nc2cc(C(=O)N3CC[C@@H](N4CCc5ccccc5C4)[C@H](O)C3)nc(SC(C)C)n2)CC1` [Example 155, 1-(4-((6-((3R,4R)-4-(3,4-dihydroisoquinolin-2(1H)-yl)-3-hydroxy-piperidine-1-carbonyl)-2-(isopropylthio)pyrimidin-4-yl)amino)piperidin-1-yl)ethan-1-one hydrochloride], for which the pIC50 was over 7.00.

`CCOc1ccccc1Nc1cc(N2CC[C@@H](N3CCc4ccccc4C3)[C@H](O)C2)ncn1` (relative stereo) [Example 90, trans-1-(6-((2-ethoxyphenyl)amino)pyrimidin-4-yl)-4-(3,4-dihydroisoquinolin-2(1H)-yl)piperidin-3-ol] showed a pIC50 of over 7.00.

The compound `O[C@@H]1CN(c2cc(Nc3ccccc3OCC(F)(F)F)ncn2)CC[C@H]1N1CCc2ccccc2C1` (relative stereo) [Example 91, trans-1-(6-((2-(2,2,2-trifluoroethoxy)phenyl)amino)pyrimidin-4-yl)-4-(3,4-dihydroisoquinolin-2(1H)-yl)piperidin-3-ol] gave a pIC50 of over 7.00.

`CNC(=O)c1ccc(Nc2cc(C(=O)N3CC[C@H](N4CCc5ccccc5C4)[C@@H](O)C3)ncn2)cc1` (relative stereo) [Example 131, trans-4-((6-(4-(3,4-dihydroisoquinolin-2(1H)-yl)-3-hydroxypiperidine-1-carbonyl)pyrimidin-4-yl)amino)-N-methylbenzamide] had a negative-log IC50 (pIC50) of over 7.00.

On to `CC(=O)N1CCC(Nc2cc(C(=O)N3CC[C@H](N4CCc5ccccc5C4)[C@@H](O)C3)ncn2)CC1` (relative stereo) [Example 17, trans-1-(4-((6-(4-(3,4-dihydroisoquinolin-2(1H)-yl)-3-hydroxypiperidine-1-carbonyl)pyrimidin-4-yl)amino)piperidin-1-yl)ethanone], for which the pIC50 was over 7.00.

Consider `O[C@@H]1CN(c2cc(Nc3cccc(F)c3F)ncn2)CC[C@H]1N1CCc2ccccc2C1` (relative stereo) [Example 87, trans-1-(6-((2,3-difluorophenyl)amino)pyrimidin-4-yl)-4-(3,4-dihydroisoquinolin-2(1H)-yl)piperidin-3-ol], for which the negative-log IC50 (pIC50) was over 7.00.

In turn, `CC(=O)N1CCC(Nc2cc(C(=O)N3CC[C@H](O)[C@@H](N4CCc5ccccc5C4)CC3)ncn2)CC1` [Example 124, 1-(4-((6-((4S,5S)-4-(3,4-dihydroisoquinolin-2(1H)-yl)-5-hydroxyazepane-1-carbonyl)pyrimidin-4-yl)amino)piperidin-1-yl)ethan-1-one] gave a negative-log IC50 (pIC50) of over 7.00.

`CC(=O)N1CCC(Sc2cc(C(=O)N3CC[C@H](N4CCc5ccccc5C4)[C@@H](O)C3)ncn2)CC1` (relative stereo) [Example 119, trans-1-(4-((6-(4-(3,4-dihydroisoquinolin-2(1H)-yl)-3-hydroxypiperidine-1-carbonyl)pyrimidin-4-yl)thio)piperidin-1-yl)ethan-1-one] gave a negative logarithm of the IC50 (pIC50) of over 7.00.

Compound `COC(=O)N1CCC(Nc2cc(C(=O)N3CC[C@H](N4CCc5ccccc5C4)[C@@H](O)C3)ncn2)CC1` (relative stereo) [Example 123, methyl trans-4-((6-(4-(3,4-dihydroisoquinolin-2(1H)-yl)-3-hydroxypiperidine-1-carbonyl)pyrimidin-4-yl)amino)piperidine-1-carboxylate] showed a pIC50 of over 7.00.

The record behind these values is US20240336593A1, “Compound Having Antitumor Activity And Use Thereof” (lnnovStoneTherapeutics Limited, priority 2020, published 2024).
